Test results: US10034861B2 (priority 2016, dated 2018)
Where two headings read alike, the source gives them in different places.

Experiments:
Format in all cases: biochemical
PDE1B = PDE1B (Homo sapiens (Human), UniProt Q01064); assay: PDE1 inhibition assay (PDE1B); conditions: 15 nM tritium labelled cAMP, 1 hr at room temperature, SPA beads
Description: (§1) Table 1 lists the IC50 value for inhibition of PDE1 by the compounds of the invention. […] PDE1 assays are described in the Experimental Section.

PDE1A = PDE1A (Homo sapiens (Human), UniProt P54750); assay: biochemical
PDE1A, sequence (P54750 whole entry): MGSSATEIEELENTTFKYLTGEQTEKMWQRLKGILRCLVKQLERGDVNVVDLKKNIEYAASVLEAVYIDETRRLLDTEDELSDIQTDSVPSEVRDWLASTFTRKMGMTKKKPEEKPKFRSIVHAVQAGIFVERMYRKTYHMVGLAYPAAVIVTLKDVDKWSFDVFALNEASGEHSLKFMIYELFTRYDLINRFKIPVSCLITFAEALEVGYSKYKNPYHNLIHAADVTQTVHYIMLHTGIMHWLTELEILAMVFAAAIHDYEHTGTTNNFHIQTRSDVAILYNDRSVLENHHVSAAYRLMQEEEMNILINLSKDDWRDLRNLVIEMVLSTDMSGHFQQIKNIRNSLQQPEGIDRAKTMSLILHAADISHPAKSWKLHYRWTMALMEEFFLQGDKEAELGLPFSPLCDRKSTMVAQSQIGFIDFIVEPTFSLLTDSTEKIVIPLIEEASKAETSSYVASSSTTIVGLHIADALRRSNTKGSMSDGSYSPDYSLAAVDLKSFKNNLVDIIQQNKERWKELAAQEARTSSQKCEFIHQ
Description: as §1

PDE1C = PDE1C (Homo sapiens (Human), UniProt Q14123); assay: biochemical
PDE1C, sequence (Q14123 whole entry): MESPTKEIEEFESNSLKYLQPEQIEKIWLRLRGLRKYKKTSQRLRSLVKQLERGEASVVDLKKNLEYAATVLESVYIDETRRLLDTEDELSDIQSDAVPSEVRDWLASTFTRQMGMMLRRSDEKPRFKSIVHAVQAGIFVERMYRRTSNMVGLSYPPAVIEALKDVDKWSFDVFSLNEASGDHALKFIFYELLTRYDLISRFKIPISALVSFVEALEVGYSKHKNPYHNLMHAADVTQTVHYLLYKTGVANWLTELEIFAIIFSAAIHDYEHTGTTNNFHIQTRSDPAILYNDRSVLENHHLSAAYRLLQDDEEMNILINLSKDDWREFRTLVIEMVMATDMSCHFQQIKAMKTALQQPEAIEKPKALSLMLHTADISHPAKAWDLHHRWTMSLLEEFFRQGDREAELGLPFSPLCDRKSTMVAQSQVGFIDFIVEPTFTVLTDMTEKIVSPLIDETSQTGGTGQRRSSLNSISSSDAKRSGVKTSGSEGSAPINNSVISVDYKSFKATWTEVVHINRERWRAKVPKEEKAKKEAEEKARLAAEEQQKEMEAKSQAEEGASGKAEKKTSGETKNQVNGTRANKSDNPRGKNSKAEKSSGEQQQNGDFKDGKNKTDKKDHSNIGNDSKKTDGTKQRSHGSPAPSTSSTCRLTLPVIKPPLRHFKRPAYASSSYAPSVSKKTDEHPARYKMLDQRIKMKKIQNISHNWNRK
Description: as §1

[1] = 15 nM tritium labelled cAMP, 1 hr at room temperature, SPA beads

PDE1B, sequence (Q01064 whole entry): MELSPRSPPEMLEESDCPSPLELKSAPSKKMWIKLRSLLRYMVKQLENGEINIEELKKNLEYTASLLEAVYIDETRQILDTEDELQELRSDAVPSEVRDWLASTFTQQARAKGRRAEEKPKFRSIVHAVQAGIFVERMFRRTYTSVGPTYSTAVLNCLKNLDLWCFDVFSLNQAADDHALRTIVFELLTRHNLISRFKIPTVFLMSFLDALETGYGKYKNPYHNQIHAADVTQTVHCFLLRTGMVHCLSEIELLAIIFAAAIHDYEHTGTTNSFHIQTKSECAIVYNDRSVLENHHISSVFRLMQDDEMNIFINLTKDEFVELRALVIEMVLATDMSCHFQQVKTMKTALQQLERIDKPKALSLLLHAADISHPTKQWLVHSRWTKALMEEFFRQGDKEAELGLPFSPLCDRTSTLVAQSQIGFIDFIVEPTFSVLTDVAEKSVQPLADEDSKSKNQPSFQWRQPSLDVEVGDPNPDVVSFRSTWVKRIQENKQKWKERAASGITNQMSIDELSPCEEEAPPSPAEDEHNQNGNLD

Row | Compound | IC50 (PDE1B; read-out: PDE1B, IC50) [nM] | IC50 (PDE1A; [1]) [nM] | IC50 (PDE1C; [1]) [nM] | IC50 (PDE1B; PDE1B, IC50 (nM)) [nM] | IC50 (PDE1A) [nM] | IC50 (PDE1C) [nM]
1 | CCCOc1ncccc1-c1cc(NCc2cc[nH]n2)c2c(n1)c(C)nn2C(C)C [Example 143, 1-isopropyl-3-methyl-5-(2-propoxy-3-pyridyl)-N-(1H-pyrazol-3-ylmethyl)pyrazolo[4,3-b]pyridin-7-amine] | 0.26 | 3.8 | 9.2 | – | – | –
2 | CCOc1ncccc1-c1cc(NCc2noc(C)n2)c2c(n1)c(C)nn2C(C)C [Example 52, 5-(2-ethoxy-3-pyridyl)-1-isopropyl-3-methyl-N-[(5-methyl-1,2,4-oxadiazol-3-yl)methyl]pyrazolo[4,3-b]pyridin-7-amine] | 0.17 | 1.9 | 4.4 | – | – | –
3 | CCOc1ncccc1-c1cc(NCc2c[nH]cn2)c2c(n1)c(C)nn2C(C)CC (single isomer, unassigned) [Example 130, 5-(2-ethoxy-3-pyridyl)-N-(1H-imidazol-4-ylmethyl)-3-methyl-1-[1-methylpropyl]pyrazolo[4,3-b]pyridin-7-amine] | – | 11 | 25 | 0.86 | – | –
4 | Cc1nn(C(C)C)c2c(NCc3cnn(C)c3)cc(-c3nccs3)nc12 [Example 147, 1-isopropyl-3-methyl-N-[(1-methylpyrazol-4-yl)methyl]-5-thiazol-2-yl-pyrazolo[4,3-b]pyridin-7-amine] | 2.1 | 12 | 28 | – | – | –
5 | CCOc1ncccc1-c1cc(NCc2nccn2C)c2c(cnn2C(C)C)n1 [Example 17, 5-(2-ethoxy-3-pyridyl)-1-isopropyl-N-[(1-methylimidazol-2-yl)methyl]pyrazolo[4,3-b]pyridin-7-amine] | 54 | 700 | 970 | – | – | –
6 | Cc1nn(C(C)C)c2c(NCc3cc[nH]n3)cc(-c3ccc[nH]c3=O)nc12 [Example 187, 3-[1-isopropyl-3-methyl-7-(1H-pyrazol-3-ylmethylamino)pyrazolo[4,3-b]pyridin-5-yl]-1H-pyridin-2-one] | 18 | 140 | 250 | – | – | –
7 | COc1ncccc1-c1cc(NCc2cnn(C)c2)c2c(n1)c(C)nn2C(C)C [Example 62, 1-isopropyl-5-(2-methoxy-3-pyridyl)-3-methyl-N-[(1-methylpyrazol-4-yl)methyl]pyrazolo[4,3-b]pyridin-7-amine] | 2.4 | 16 | 21 | – | – | –
8 | CCOc1ncccc1-c1cc(NCc2cnn(C)n2)c2c(n1)c(C)nn2C(C)C [Example 5, 5-(2-ethoxy-3-pyridyl)-1-isopropyl-3-methyl-N-[(2-methyltriazol-4-yl)methyl]pyrazolo[4,3-b]pyridin-7-amine] | 1.8 | 11 | 28 | – | – | –
9 | CCOc1ncccc1-c1cc(NCc2ccccn2)c2c(n1)c(C)nn2C(C)C [Example 100, 5-(2-ethoxy-3-pyridyl)-1-isopropyl-3-methyl-N-(2-pyridylmethyl)pyrazolo[4,3-b]pyridin-7-amine] | 0.39 | 6.3 | 21 | – | – | –
10 | CCOc1ncccc1-c1cc(NCc2ccccc2C(F)(F)F)c2c(n1)c(C)nn2C(C)C [Example 90, 5-(2-ethoxy-3-pyridyl)-1-isopropyl-3-methyl-N-[[2-(trifluoromethyl)phenyl]methyl]pyrazolo[4,3-b]pyridin-7-amine] | 12 | 270 | 640 | – | – | –
11 | CCOc1ncccc1-c1cc(CNc2ncn(C)n2)c2c(n1)c(C)nn2C(C)C [Example 158, N-[[5-(2-ethoxy-3-pyridyl)-1-isopropyl-3-methyl-pyrazolo[4,3-b]pyridin-7-yl]methyl]-1-methyl-1,2,4-triazol-3-amine] | 4.9 | 23 | 50 | – | – | –
12 | CCOc1ncccc1-c1cc(NCc2cnn(C)c2)c2c(n1)c(C)nn2CC [Example 48, 5-(2-ethoxypyridin-3-yl)-1-ethyl-3-methyl-N-((1-methyl-1H-pyrazol-4-yl)methyl)-1H-pyrazolo[4,3-b]pyridin-7-amine] | 6.3 | 38 | 170 | – | – | –
13 | CCOc1ncccc1-c1cc(NCc2cncc(OC)c2)c2c(n1)c(C)nn2C(C)C [Example 106, 5-(2-ethoxy-3-pyridyl)-1-isopropyl-N-[(5-methoxy-3-pyridyl)methyl]-3-methyl-pyrazolo[4,3-b]pyridin-7-amine] | 0.45 | 2.1 | 3.9 | – | – | –
14 | CCOc1ncccc1-c1cc(NCc2ccnn2C)c2c(cnn2C(C)C)n1 [Example 18, 5-(2-ethoxypyridin-3-yl)-1-isopropyl-N-((1-methyl-1H-pyrazol-5-yl)methyl)-1H-pyrazolo[4,3-b]pyridin-7-amine] | 73 | 450 | 640 | – | – | –
15 | CCOc1ncccc1-c1cc(NCc2cccc(C)c2)c2c(cnn2C(C)C)n1 [Example 23, 5-(2-ethoxy-3-pyridyl)-1-isopropyl-N-(m-tolylmethyl)pyrazolo[4,3-b]pyridin-7-amine] | 38 | 240 | 750 | – | – | –
16 | CCOc1ncccc1-c1cc(NCc2coc(C)n2)c2c(n1)c(C)nn2C(C)C [Example 37, 5-(2-ethoxy-3-pyridyl)-1-isopropyl-3-methyl-N-[(2-methyloxazol-4-yl)methyl]pyrazolo[4,3-b]pyridin-7-amine] | 0.43 | 5.9 | 18 | – | – | –
17 | Cc1nn(C(C)C)c2c(NCc3cnn(C)c3)cc(-n3cncn3)nc12 [Example 185, 1-isopropyl-3-methyl-N-((1-methyl-1H-pyrazol-4-yl)methyl)-5-(1H-1,2,4-triazol-1-yl)-1H-pyrazolo[4,3-b]pyridin-7-amine] | 24 | 100 | 92 | – | – | –
18 | CCOc1ncccc1-c1cc(NCc2cc[nH]n2)c2c(cnn2C(C)C)n1 [Example 57, 5-(2-ethoxy-3-pyridyl)-1-isopropyl-N-(1H-pyrazol-3-ylmethyl)pyrazolo[4,3-b]pyridin-7-amine] | 4.8 | 98 | 170 | – | – | –
19 | CCOc1ncccc1-c1cc(NCc2scnc2C)c2c(cnn2C(C)C)n1 [Example 71, 5-(2-ethoxy-3-pyridyl)-1-isopropyl-N-[(4-methylthiazol-5-yl)methyl]pyrazolo[4,3-b]pyridin-7-amine] | – | – | – | 18 | 170 | 180
20 | CCOc1ncccc1-c1cc(NCc2cccnc2F)c2c(n1)c(C)nn2C(C)C [Example 85, 5-(2-ethoxy-3-pyridyl)-N-[(2-fluoro-3-pyridyl)methyl]-1-isopropyl-3-methyl-pyrazolo[4,3-b]pyridin-7-amine] | 0.22 | 8.4 | 27 | – | – | –
21 | CCOc1ncccc1-c1cc(NCc2cccnc2OC)c2c(n1)c(C)nn2C(C)C [Example 86, 5-(2-ethoxy-3-pyridyl)-1-isopropyl-N-[(2-methoxy-3-pyridyl)methyl]-3-methyl-pyrazolo[4,3-b]pyridin-7-amine] | 0.36 | 20 | 68 | – | – | –
22 | CCOc1ncccc1-c1cc(NCc2ncn(C)n2)c2c(cnn2C(C)CC)n1 (single isomer, unassigned) [Example 140, 5-(2-ethoxy-3-pyridyl)-1-[1-methylpropyl]-N-[(1-methyl-1,2,4-triazol-3-yl)methyl]pyrazolo[4,3-b]pyridin-7-amine] | – | 32 | – | 1.7 | – | 52
23 | COc1ncccc1CNc1cc(-c2cccnc2OC(F)F)nc2c(C)nn(C(C)C)c12 [Example 188, 5-[2-(difluoromethoxy)-3-pyridyl]-1-isopropyl-N-[(2-methoxy-3-pyridyl)methyl]-3-methyl-pyrazolo[4,3-b]pyridin-7-amine] | 7.8 | 61 | 60 | – | – | –
24 | CCOc1ncccc1-c1cc(NCc2cnc(OC)cn2)c2c(n1)c(C)nn2C(C)C [Example 114, 5-(2-ethoxy-3-pyridyl)-1-isopropyl-N-[(5-methoxypyrazin-2-yl)methyl]-3-methyl-pyrazolo[4,3-b]pyridin-7-amine] | 3 | 24 | 46 | – | – | –
25 | Cc1nn(C(C)C)c2c(NCc3cnn(C)c3)cc(-c3ncnn3C)nc12 [Example 195, 1-isopropyl-3-methyl-5-(1-methyl-1H-1,2,4-triazol-5-yl)-N-((1-methyl-1H-pyrazol-4-yl)methyl)-1H-pyrazolo[4,3-b]pyridin-7-amine] | 110 | 420 | 160 | – | – | –
26 | CCOc1ncccc1-c1cc(NCc2cnn(CC)c2)c2c(n1)c(C)nn2C(C)C [Example 109, 5-(2-ethoxy-3-pyridyl)-N-[(1-ethylpyrazol-4-yl)methyl]-1-isopropyl-3-methyl-pyrazolo[4,3-b]pyridin-7-amine] | 0.66 | 4.9 | 11 | – | – | –
27 | CCOc1ncccc1-c1cc(NCc2cn[nH]c2)c2c(n1)c(C)nn2C(C)C [Example 7, 5-(2-ethoxy-3-pyridyl)-1-isopropyl-3-methyl-N-(1H-pyrazol-4-ylmethyl)pyrazolo[4,3-b]pyridin-7-amine] | 1.1 | 21 | 37 | – | – | –
28 | CCCOc1ncccc1-c1cc(NCc2cnn(C)c2)c2c(n1)c(C)nn2C(C)C [Example 94, 1-isopropyl-3-methyl-N-[(1-methylpyrazol-4-yl)methyl]-5-(2-propoxy-3-pyridyl)pyrazolo[4,3-b]pyridin-7-amine] | 0.065 | 1.4 | 4.9 | – | – | –
29 | CCOc1ncccc1-c1cc(NCc2nc[nH]n2)c2c(n1)c(C)nn2C(C)CC (single isomer, unassigned) [Example 144, 5-(2-ethoxy-3-pyridyl)-3-methyl-1-[1-methylpropyl]-N-(1H-1,2,4-triazol-3-ylmethyl)pyrazolo[4,3-b]pyridin-7-amine] | – | 14 | 23 | 1.1 | – | –
